Assay results as given in patent publication US12018097.
Like-named read-outs stand apart in the source and are kept apart here.

Conditions: the molecule shown is the open-chain precursor, thioether bond, resin, 4 steps

catch-resin-ArSO2O-CH2CO-dTrp-Pro-MeAla-Asp-Val-MeSer-Gly-Arg-MePhe-MeGly-Tyr-MePhe-Pro-Cys-Gly-NH2?
ring closure, conversion (45-membered ring): 33%

catch-resin-ArSO2O-CH2CO-dTrp-MeAla-Tyr-Asp-MeSer-Gly-Asp-Pro-MeAla-Asp-Val-MeSer-Gly-Arg-MePhe-MeGly-Tyr-MePhe-Pro-Cys-Gly-NH2?
ring closure, conversion (63-membered ring): 44%

catch-resin-ArSO2O-CH2CO-dTrp-MeSer-Gly-Asp-Pro-MeAla-Asp-Val-MeSer-Gly-Arg-MePhe-MeGly-Tyr-MePhe-Pro-Cys-Gly-NH2?
ring closure, conversion (54-membered ring): 29%

catch-resin-ArSO2O-CH2CO-dTrp-Gly-Asp-Pro-MeAla-Asp-Val-MeSer-Gly-Arg-MePhe-MeGly-Tyr-MePhe-Pro-Cys-Gly-NH2?
ring closure, conversion (51-membered ring): 51%

catch-resin-ArSO2O-CH2CO-dTrp-Tyr-Asp-MeSer-Gly-Asp-Pro-MeAla-Asp-Val-MeSer-Gly-Arg-MePhe-MeGly-Tyr-MePhe-Pro-Cys-Gly-NH2?
ring closure, conversion (60-membered ring): 57%

catch-resin-ArSO2O-CH2CO-dTrp-MeAla-Asp-Val-Cys-Gly-NH2?
ring closure, conversion (18-membered ring): 83%

catch-resin-ArSO2O-CH2CO-dTrp-MeAla-Asp-Val-MeSer-Gly-Arg-MePhe-MeGly-Cys-Gly-NH2?
ring closure, conversion (33-membered ring): 64%

catch-resin-ArSO2O-CH2CO-dTrp-Asp-Pro-MeAla-Asp-Val-MeSer-Gly-Arg-MePhe-MeGly-Tyr-MePhe-Pro-Cys-Gly-NH2?
ring closure, conversion (48-membered ring): 74%

catch-resin-ArSO2O-CH2CO-dTrp-Asp-MeSer-Gly-Asp-Pro-MeAla-Asp-Val-MeSer-Gly-Arg-MePhe-MeGly-Tyr-MePhe-Pro-Cys-Gly-NH2?
ring closure, conversion (57-membered ring): 50%

catch-resin-ArSO2O-CH2CO-dTrp-Cys-Asp-Val-MeSer-Gly-Arg-MePhe-MeGly-Tyr-MePhe-Pro-Cys-Gly-NH2?
ring closure, conversion (42-membered ring): 28%

catch-resin-ArSO2O-CH2CO-dTrp-MeAla-Asp-Val-MeSer-Gly-Arg-Cys-Gly-NH2?
ring closure, conversion (27-membered ring): 98%

catch-resin-ArSO2O-CH2CO-dTrp-MeAla-Asp-Val-MeSer-Gly-Arg-MePhe-MeGly-Tyr-Cys-Gly-NH2?
ring closure, conversion (36-membered ring): 72%

catch-resin-ArSO2O-CH2CO-dTrp-MeAla-Asp-Val-MeSer-Gly-Arg-MePhe-MeGly-Tyr-MePhe-Pro-Cys-Gly-NH2?
ring closure, conversion (42-membered ring): 50%

catch-resin-ArSO2O-CH2CO-dTrp-MeAla-Asp-Val-MeSer-Cys-Gly-NH2?
ring closure, conversion (21-membered ring): 66%
